One data set deals with MC38 colorectal tumor. Nature of the data set: Efficacy in isotype MC38 colorectal tumor mice model. The data set is classed as in vivo, C57BL/6 mice. On the procedure:
Female C57BL/6 mice (20-25 gram, 7-9 weeks old) were used in the experiment. In vivo antitumor activity of the compound of Example 1 administered alone or the compound of Example 1 administered in combination with anti-mouse PD-1 antibody was evaluated by detecting the growth of isotype MC38 colorectal tumor in inbred C57BL/6 mice. 500,000 (5×10^5) MC38 cells were implanted subcutaneously in the right abdomen of each mouse. When the tumor grew to 40-80 mm^3 (on Day 6), the mice were grouped randomly into the above four groups. In Group III and IV, the mice were administered the compound of Example 1 (0.5 mg/kg) once a day for 20 consecutive days. During the treatment experiment in Group II and IV, the anti-mouse PD-1 (CD279) antibody (BioXcell) (5 mg/kg) was intraperitoneally injected (i.p.) to the mice bearing MC38 tumor on Day 6, 9, 12 and 15, respectively. […]
The tumor volume was measured with a caliper in three dimensions, and then calculated according to the following formula: tumor volume (mm^3)=1×w×h×0.5236, wherein 1 represents the length of the tumor, w represents the width of the tumor, and h represents the height of the tumor, in millimeters. […]

Data set [1] in a line: Pharmacokinetics assay in mice. The data set is classed as in vivo. To be noted: female, mouse, po, C57 mice, intragastric, 2 mg/kg; for Vd/F: read-out: Apparent distribution volume Vz/F; for AUC: read-out: Area under curve AUC; for CL/F: read-out: Clearance CLz/F; for half-life: read-out: Half-life T½ (converted); for Cmax: read-out: Plasma concentration Cmax; for MRT: read-out: Residence time MRT. The procedure:
Mice were used as test animals. […] The pharmacokinetic behavior of the compounds of the present invention was studied and evaluated in mice. A group of eighteen C57 mice (female, equally divided into two groups) were purchased from Shanghai Jiesijie Laboratory Animal Co., LTD, with Certificate No.: SCXK (Shanghai) 2013-0006. A certain amount of the test compound was weighed, and added with 5% by volume of DMSO, 5% by volume of tween 80 and 90% by volume of normal saline to prepare a 0.1 mg/mL colorless, clear and transparent solution. […] The samples were stored in heparinized tubes, and centrifuged for 10 minutes at 3500 rpm to separate the blood plasma. The plasma samples were stored at −20° C. The content of the test compound in the plasma of mice after intragastrical administration of the test compound at different concentrations was determined: 25 μL of mouse plasma at each time after administration was taken, added with 80 μL of the internal standard solution of camptothecin (100 ng/mL) and 200 μL of acetonitrile, vortex-mixed for 5 minutes, and centrifuged for 10 minutes (3600 rpm). 1 μL of the supernatant was taken from the plasma samples for LC/MS/MS analysis.

For the next data set, the system named is IL-17A. Nature of the data set: IL-17A enzyme-linked immune quantitative assay in cytostim-activated human PBMC. Format: cell-based. To be noted: 72 h, 3 days. On the procedure: Frozen human peripheral blood mononuclear cells (PBMC) were rapidly resuscitated in pre-warmed lymphocyte culture medium, and centrifuged at 1000 rpm for 10 min. The cell culture supernatant was removed. The cells were gently suspended in TexMACS medium and counted. The T cell activation reagent cytostim (10 μl/ml) was added in proportion to the cell suspension. Then, the cells were seeded in a 96-well cell culture plate at a density of 1×10^5 peripheral blood mononuclear cells/well. The test compounds were diluted in gradient with TexMACS medium, and added respectively to the test wells, with 2-3 parallel wells per group. A negative control well containing only cells without cytostim was provided to obtain the background reading. The cell culture plate was placed in a incubator at 5% carbon dioxide, 37° C. to incubate for 3 days. The cell culture supernatant was collected 3 days after drug treatment, and centrifuged to remove the suspension. Then, IL-17A in the supernatant was quantified with IL-17A enzyme-linked immunosorbent kit. EC50 values of the test compounds were calculated with GraphPad Prism 6.0.

A further data set has as its target T1, RORγ LBD (Homo sapiens, UniProt P51449).
T1 construct: RORγ LBD (AB Vector); purchased AB Vector
T1 sequence (P51449 269-508 limits assumed): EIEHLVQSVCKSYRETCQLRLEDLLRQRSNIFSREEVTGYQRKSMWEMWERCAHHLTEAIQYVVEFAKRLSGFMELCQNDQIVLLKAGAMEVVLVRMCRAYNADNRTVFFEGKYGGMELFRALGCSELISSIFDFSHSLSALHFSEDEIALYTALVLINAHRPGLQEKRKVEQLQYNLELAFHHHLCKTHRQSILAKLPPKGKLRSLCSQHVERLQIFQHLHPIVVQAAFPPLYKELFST
Put plainly: LanthaScreen TR-FRET RORγ co-activation system, effect on in vitro activity of RORγ. The data set is classed as biochemical. On the procedure: A complete buffer D (complete TR-FRET Coregulator) (Life Technologies) was formulated first, containing a final concentration of 5 mM DTT. The final concentration of DMSO was 2%. The test compound was serially diluted to 2× final concentration in the complete buffer D containing 2% of DMSO, and the maximum dose was 60 μm. The test compound was added to the test wells of a 384-well plate (PerkinElmer) in 10 μl/well. Two parallel control wells were set up for each test compound at the same concentration. 4×RORγ LBD (AB Vector) was formulated. RORγ LBD was diluted with the complete buffer D to a concentration of 1 ng/μL, and added to the test wells of the 384-well plate in 5 µl/well. The negative control well was 5 μL of complete buffer D without RORγ LBD. A mixed solution comprising 0.6 μM of fluorescein-D22 (4×) and 8 nM of terbium (Tb)-labeled anti-GST antibody (4×) (Life Technologies) was formulated with the complete buffer D, and 5 μL of the mixed solution was added to the 384-well plate. The total reaction system was 20 μL. The 384-well plate was gently shaken on a shaker, and incubated at room temperature in the dark for 2-4 hours.
Fluorescence readings were determined with Tecan Infinite M1000. The logarithmic curve of the ratio of the emission wavelength of 520 nm/495 nm to the concentration of the compound was plotted by GraphPad Prism 6.0 software. EC50 value of the test compound was calculated.
A general note: Time-resolved FRET reads energy transfer from a long-lived donor to a nearby acceptor.

The values that follow come from patent US20200277278A1, “Deuterium Atom-Substituted Indole Formamide Derivative, Preparation Method Therefor, and Medical Applications Thereof” (Jiangsu Hengrui Medicine Co., Ltd., priority 2017, published 2020).

Like-named read-outs stand apart in the source and are kept apart here.

Regarding `[2H]C([2H])(F)Cn1c(Cc2ccc(Cl)cc2C(F)(F)F)cc2cc(C(=O)N[C@@H](CO)c3ccc(S(=O)(=O)CC)cc3)ccc21` (single isomer, unassigned) [Example 1], the “Tumor growth inhibition rate TGI” value with MC38 colorectal tumor (0.5 mg/kg oral in combination with anti-mouse PD-1 monoclonal antibody 5 mg/kg i.p.) was found to be 65.5%. The “Tumor growth inhibition rate TGI” value in the data set on MC38 colorectal tumor (administered alone, 0.5 mg/kg oral, once a day for 20 days) worked out at 22.5%. Further, in data set [1] (plasma), the Vd/F is 0.648 L/kg; the AUC (commonly the area under the concentration-time curve, a measure of exposure) came to 40400 ng·h/mL; the CL/F stood at 0.82 mL/min/kg; the half-life (in general, how long it takes for the measured level to halve) is 9.08 h. Further, in data set [1] (plasma), the Cmax was determined as 3710 ng/mL and the MRT (as a rule, a mean duration of stay, worked out from the concentration-time curve) turned out to be 12 h. In addition, in the data set with IL-17A, a half-maximal effect (EC50) was put at 22 nM and the Emax (commonly the size of the effect at its maximum, as opposed to the concentration needed) was 88%.

Take `[2H]C([2H])([2H])C([2H])([2H])S(=O)(=O)c1ccc([C@H](CO)NC(=O)c2ccc3c(c2)cc(Cc2ccc(Cl)cc2C(F)(F)F)n3CCF)cc1` (single isomer, unassigned) [Example 6]: in data set [1] (in vivo), the Vd/F amounted to 0.575 L/kg, the AUC amounted to 31600 ng·h/mL, the CL/F was determined as 1.06 mL/min/kg and the half-life was 6.29 h. Further, in data set [1] (in vivo), the Cmax was found to be 2730 ng/mL and the MRT is 9.13 h. In addition, in the data set with IL-17A, the EC50 (usually the concentration that produces a half-maximal response) amounted to 37 nM and the Emax was found to be 100%.

Regarding `[2H]C([2H])(c1cc2cc(C(=O)N[C@@H](CO)c3ccc(S(=O)(=O)CC)cc3)ccc2n1C1CC1)n1nccc1C(F)(F)F` [Example 2, 1-Cyclopropyl-2-[dideutero-[5-(trifluoromethyl)pyrazol-1-yl]methyl]-N-[(1R)-1-(4-ethylsulfonylphenyl)-2-hydroxy-ethyl]indole-5-carboxamide], on RORγ LBD, the EC50 amounted to 16 nM and the Emax worked out at 89%.

As to `[2H]C([2H])(NC(=O)c1ccc2c(c1)cc(Cc1ccc(Cl)cc1C(F)(F)F)n2CCF)c1ccc(S(=O)(=O)CC)cc1` [Example 3, 2-[[4-Chloro-2-(trifluoromethyl)phenyl]methyl]-N-[dideutero-(4-ethylsulfonylphenyl)methyl]-1-(2-fluoroethyl)indole-5-carboxamide], the EC50 on RORγ LBD is 17 nM; in the data set on IL-17A it was 103 nM. For the same molecule, the results for the Emax at RORγ LBD and in the data set with IL-17A were 98% and 102%, respectively.

For `[2H]C([2H])(NC(=O)c1ccc2c(c1)cc(Cc1ccccc1C(F)(F)F)n2C1CC1)c1ccc(S(=O)(=O)CC)cc1` [Example 4, 1-Cyclopropyl-N-[dideutero-(4-ethylsulfonylphenyl)methyl]-2-[[2-(trifluoromethyl)phenyl]methyl]indole-5-carboxamide], at RORγ LBD, it took 5 nM to reach a half-maximal effect (EC50) and the maximal response (Emax) was determined as 98%. In the data set with IL-17A, it took 20 nM to reach a half-maximal effect (EC50) and the Emax is 79%.

At RORγ LBD, `[2H]C([2H])(O)Cn1c(Cc2ccc(Cl)cc2C(F)(F)F)cc2cc(C(=O)N[C@@H](CO)c3ccc(S(=O)(=O)CC)cc3)ccc21` [Example 5, 2-[[4-Chloro-2-(trifluoromethyl)phenyl]methyl]-1-(2,2-dideutero-2-hydroxy-ethyl)-N-[(1R)-1-(4-ethylsulfonylphenyl)-2-hydroxy-ethyl]indole-5-carboxamide] displayed an EC50 of 9 nM and an Emax of 73%. In the data set on IL-17A, this molecule yielded an EC50 of 32 nM and an Emax of 82%.

For the molecule `[2H]C([2H])([2H])OC[C@H](NC(=O)c1ccc2c(c1)cc(Cc1ccc(Cl)cc1C(F)(F)F)n2CCF)c1ccc(S(=O)(=O)CC)cc1` [Example 8, 2-[[4-Chloro-2-(trifluoromethyl)phenyl]methyl]-N-[(1R)-1-(4-ethylsulfonylphenyl)-2-(trideuteromethoxy)ethyl]-1-(2-fluoroethyl)indole-5-carboxamide], on RORγ LBD, the EC50 came out at 34 nM and the Emax was determined as 85%.

For `[2H]C([2H])(C)n1c(Cc2ccc(Cl)cc2C(F)(F)F)cc2cc(C(=O)N[C@@H](CO)c3ccc(S(=O)(=O)CC)cc3)ccc21` [Example 11, 2-[[4-Chloro-2-(trifluoromethyl)phenyl]methyl]-1-(1,1-dideuteroethyl)-N-[(1R)-1-(4-ethylsulfonylphenyl)-2-hydroxyethyl]indole-5-carboxamide], on RORγ LBD, the EC50 was 21 nM and the Emax is 84%.

On RORγ LBD, `[2H]C([2H])(F)Cn1c(Cc2ccc(Cl)cc2C(F)(F)F)cc2cc(C(=O)N[C@@H](CO)c3ccc(S(=O)(=O)CC)cn3)ccc21` [Example 13, 2-[[4-Chloro-2-(trifluoromethyl)phenyl]methyl]-1-(2,2-dideutero-2-fluoro-ethyl)-N-[(1R)-1-(5-ethylsulfonyl-2-pyridinyl)-2-hydroxy-ethyl]indole-5-carboxamide] returned an EC50 of 9 nM and an Emax of 77%. In the data set on IL-17A, this molecule yielded an EC50 of 22 nM and an Emax of 88%.
